Reference: US9534008B2, “Small molecule compounds that control plant- and insect-pathogenic nematodes” (California Institute of Technology, priority 2011, dated 2017)
Entries after “also recorded” stand apart in the source; their conditions may differ.

How the values were obtained:
[1] = tested on: C. elegans hermaphrodites and males; test: Spot attraction assay; format: in vivo
Procedure: The spot attraction assays were conducted according to a previously reported method (Pungaliya et al., PNAS 106:7708-13 (2009); Srinivasan et al., Nature 454:1115-18 (2008), which are hereby incorporated by reference in their entirety). For both C. elegans hermaphrodites and males, 50-60 worms were harvested daily at the fourth larval stage (L4) and stored segregatedly by sex at 20° C. overnight, to be used as young adults the following day. For the competition experiments, two conditions were used: 120 nM ascr#3 and 10 nM icas#3 (Condition 1), or 12 μM ascr#3 and 1 μM icas#3 (Condition 2) in water containing 10% ethanol. Aliquots were stored at −20° C. in 20 μL tubes. 10% ethanol in water was used as control.
Attraction assays with hbas#3 were conducted as previously reported (Srinivasan et al., Nature 454:1115-18 (2008); Pungaliya et al., Proc. Natl. Acad. Sci. U.S.A. 106:7708-13 (2009), which are hereby incorporated by reference in their entirety). For the attraction assays, 50-60 hermaphrodite worms were harvested daily at the early fourth larval stage (L4) and stored at 20° C. overnight to be used as young adults the following day. Hbas#3 was dissolved in water containing 10% ethanol. Aliquots were stored at −20° C. in 20 μL tubes. 10% ethanol in water was used as control.

[2] = tested on: C. elegans; test: Ascaroside function (Table 12), C. elegans; format: in vivo, Caenorhabditis elegans; design: key to Attract Females/Herm. / Promote Dauer Formation / Attract Males: A very strong result of affecting nematode behavior is designated in the table as “strong.”
Procedure: (§1) Various ascarosides and ascaroside blends were administered to various nematodes described below (Table 12). […] A very strong result of affecting nematode behavior is designated in the table as “strong.”

[3] = tested on: Meloidogyne javanica, M. floridensis, M. incognita, M. hapla; test: Ascaroside function (Table 12), root-knot nematodes; format: in vivo, Meloidogyne spp.; conditions: for Dispersal (of dauer larvae, infectious juveniles) / Repel Females/Herm.: Meloidogyne javanica, M. floridensis, M. incognita, M. hapla, entries marked *; for act as dispersants and repellants in Meloidogyne species: alone, in concert, and/or in concert with ascr#9 or other ascarosides
Procedure: as §1

[4] = tested on: several of the tested nematode species; test: Retention assay, across species; format: in vivo; conditions: 1 nM, 1 μM and 1 mM tested
Procedure: OP50 E. coli was grown on a standard 5 cm agar plate (made with standard Nematode Growth Medium). The bacterial lawn was 16 mm in diameter and was grown overnight at 20° C. before being used in trials. Two 4 mm spots (0.6 μL) were placed on opposite sides of the bacterial lawn (using a transparent template to guide spot placement), and several minutes elapsed for the liquid to settle in before placing nematodes down on the assay. Recording began immediately upon worm placement. 0.6 μL of the control was placed on one side of the lawn, and 0.6 μL of the experimental cue was placed on the other side of the lawn, changing the location of the cue throughout trials between left/right and top/bottom to avoid bias.
Nematodes were isolated by gender at the L4 stage the day before being used in trials as developed adults. Worms were evenly divided and placed at two points equidistant from the foci of the scoring region. Trials were recorded for 20 minutes, and frames were collected for analysis at 1 frame per second. Results were averaged from at least three different trials. For every nematode species in this study, a different total number of worms (using water in both scoring regions) was tested to determine the minimum number of worms necessary for consistent unbiased results over a 20 minute trial. The total number of worms used in the multiple species assays depended on that species' optimal parameters. 10 worms were used for P. redivivus males and females, 20 worms were used for C. elegans males and O. dolichuridae males, and 14 worms were used for S. glaseri males. The Automated Software was used to compare worm occupancy in each scoring region over time, and the Chemotaxis Index (Bargmann et al., Cell 74:515-27 (1993), which is hereby incorporated by reference in its entirety) was adapted to score preference or avoidance to each ascaroside.
A video camera attached to the microscope produced a digital video stream, which was then analyzed. The ratio of the time the average worm spent in each region of interest was calculated for every trial. For ease of implementation, all worms in a single experiment were assumed to be roughly the same size. Thus worm pixels were counted instead of whole worms, allowing fractions of a worm in the region of interest to be taken into account. It also eliminated the need for a shape-based worm identification algorithm, and allowed each frame to be analyzed independently. A band-pass filter was applied to each frame to eliminate the effect of uneven lighting and also accentuate the worms against the background. The worm was then identified after thresholding the filtered image. Throughout each experiment, the locations and sizes of the regions of interest were known. Through the filtering described above, it is known which pixels are occupied by worms and which ones are not. Thus, the ratio of worm-pixels to all pixels inside the region of interest can be calculated to produce the worm-occupancy ratio. This calculation was done for every frame, giving a plot output of worm-occupancy ratio vs. time for each region.

[5] = tested on: S. glaseri; test: Ascaroside function (Table 12), S. glaseri; format: in vivo
Procedure: as §1

[6] = tested on: Panagrellus redivivus; test: Ascaroside function (Table 12), Panagrellus redivivus; format: in vivo
Procedure: as §1

[7] = tested on: Heterorhabditis bacteriophora, H. zealandica, H. floridensis; test: Ascaroside function (Table 12), Heterorhabditis; format: in vivo, Heterorhabditis spp.; conditions: for Dispersal (of dauer larvae, infectious juveniles) / Repel Females/Herm.: Heterorhabditis bacteriophora, H. zealandica, H. floridensis, entries marked *; for act as dispersants and repellants in Heterorhabditis: alone, in concert, and/or in concert with ascr#9 or other ascarosides
Procedure: as §1

[8] = tested on: C. elegans; conditions: in vivo; cited from earlier work
[9] = tested on: C. elegans males; test: Attraction assay (long-range, point source); conditions: in vivo
Procedure: 10 cm standard chemotaxis plates were prepared (Bargmann et al., Cell 74:515-27 (1993), which is hereby incorporated by reference in its entirety) and stored at 4° C. until the day before use. Standard 1 cm-diameter copper pipes were sectioned into 1 cm-tall segments to use for the holding chambers. The females/hermaphrodites were isolated overnight, washed 3 times in M9 buffer, and then allowed to wander on a plate pre-conditioned with 50 uL of 1000× streptomycin for 2 hours to kill any bacteria that might produce a false positive attractant. The nematodes were then washed 3 times, and the supernatant from the last wash was placed in a copper chamber, as the control, 1 cm from the border of the 10 cm plate. The nematodes were suspended in M9 within the copper chamber, 1 cm from the border opposite the control chamber. After 6 hours, they were subsequently removed and replaced with 3 μL of 1M sodium azide. 100 C. elegans adult males were isolated overnight, washed several times in ddH2O, and placed at the center of the agar plate. After several hours, males paralyzed within 2 cm of each region were scored. The Chemotaxis Index (Bargmann et al., Cell 74:515-27 (1993), which is hereby incorporated by reference in its entirety) was then used to score male chemotaxis to either point source.

[10] = tested on: S. feltiae; test: Ascaroside function (Table 12), S. feltiae; format: in vivo, Steinernema feltiae
Procedure: as §1

[11] = tested on: C. elegans; conditions: cited from earlier work
[12] = tested on: C. elegans hermaphrodites; test: Quadrant chemotaxis assay; format: in vivo; conditions: FIGS. 48A-B (spot attraction and quadrant chemotaxis)
Procedure: Chemotaxis to both non-indole and indole ascarosides was assessed on 10 cm four-quadrant petri plates (Wicks et al., Dev. Biol. 221:295-307 (2000), which is hereby incorporated by reference in its entirety). Each quadrant was separated from adjacent ones by plastic spacers (FIG. 1B). Pairs of opposite quadrants were filled with nematode growth medium (NGM) agar containing either indole ascarosides or non-indole ascarosides at different concentrations. Animals were washed gently in a S-basal buffer, placed in the center of a four-quadrant plate with ascarosides in alternating quadrants, and scored after 15 minutes and 30 minutes. A chemotaxis index was calculated as: (the number of animals on ascaroside quadrants minus the number of animals on buffer quadrants)/(total number of animals).
Chemotaxis to hbas#3 was assessed on 10 cm four-quadrant petri plates (Wicks et al., Dev. Biol. 221:295-307 (2000), which is hereby incorporated by reference in its entirety). Each quadrant was separated from adjacent ones by plastic spacers. Pairs of opposite quadrants were filled with nematode growth medium (NGM) agar containing different concentrations of hbas#3. Animals were washed gently in an S-basal buffer and placed in the center of a four-quadrant plate with ascarosides in alternating quadrants, and scored after 15 minutes and 30 minutes. A chemotaxis index was calculated as: (the number of animals on ascaroside quadrants minus the number of animals on buffer quadrants)/(total number of animals).

In the case of C[C@H](CCCCC(=O)O)O[C@@H]1O[C@@H](C)[C@H](OC(=O)c2c[nH]c3ccccc23)C[C@H]1O [icas#1], the “attraction of both C. elegans sexes” value ([1]; high concentrations, 1 μmol, N2 hermaphrodites and him-5 males) is reported as “attractive; also recorded: attracted”, the “Attract Females/Herm.” value [2] is reported as “([strong])” and the “Attract Males” value [2] is reported as “([strong])”.

In the case of CC1O[C@@H](O[C@H](C)CCCCCCC(=O)O)C(O)C[C@H]1O (stereo partly drawn) [ascr#10], the “Dispersal (of dauer larvae, infectious juveniles)” value (from here on “Dispersal”) [3] is reported as “ascr#10*”, the “Repel Females/Herm.” value [3] is reported as “ascr#10*” and the “act as dispersants and repellants in Meloidogyne species” value (“act … in Meloidogyne species” for short) [3] is reported as “dispersants and repellants”. For the same compound, the “preference for areas conditioned by ascaroside” value (shortened to “preference for areas conditioned”) [4] was “preferred”, the “Attract Males” value [5] was “ascr#10” and the “Attract Males” value [6] was “ascr#10”. For the same compound, the “Attract Males” value [2] was “ascr#10”.

In the case of C[C@@H]1O[C@@H](OCCC(=O)O)[C@H](O)C[C@H]1O [ascr#5], the “Promote Dauer Formation” value [2] is reported as “([strong])” and the “Repel Females/Herm.” value [2] is reported as “ascr#5”.

For C[C@H](CC/C=C/C(=O)O)O[C@@H]1O[C@@H](C)[C@H](O)C[C@H]1O [ascr#7], the “preference for areas conditioned” value [4] was “preferred”, the “Attract Males” value [5] was “ascr#7” and the “Attract Males” value [6] was “ascr#7”. The “Attract Males” value [2] was “ascr#7”.

In the case of C[C@H](CCCCCCCCCCC(=O)O)O[C@@H]1O[C@@H](C)[C@H](O)C[C@H]1O [ascr#22], the “Dispersal” value [7] is reported as “ascr#22*”, the “Repel Females/Herm.” value [7] is reported as “ascr#22*” and the “act as dispersants and repellants in Heterorhabditis” value [7] is reported as “dispersants and repellants”. The “Dispersal” value [3] was “ascr#22*”, the “Repel Females/Herm.” value [3] was “ascr#22*” and the “act … in Meloidogyne species” value [3] was “dispersants and repellants”.

In the case of CC1O[C@@H](O[C@H](C)CCCC/C=C/C(=O)O)[C@@H](O)C[C@H]1O (stereo partly drawn) [ascr#3], the “preference for areas conditioned” value [4] is listed as “preferred”, the dauer-inducing activity [8] is listed as “promote dauer entry” and the “Attract Males” value [5] is listed as “ascr#3”. The “C. elegans male chemotaxis to a point source” value [9] was “chemotax towards”, the “amount eliciting C. elegans male attraction from a distance (as low as)” value [9] was no more than 5 femtomol and the “Dispersal” value [10] was “ascr#3”. For the same compound, the “Attract Males” value [6] was “ascr#3”, the “most active amount for attraction in C. elegans” value ([11]; from 1 μM concentration) was roughly 1 pmol and the hermaphrodite repulsion ([11]; in vivo) was “repels hermaphrodites; also recorded: strongly deter”. For the same compound, the male attraction ([11]; in vivo) was “strongly attracts males”, the “Attract Males” value [2] was “ascr#3” and the “Promote Dauer Formation” value [2] was “([strong])”. For the same compound, the “Repel Females/Herm.” value [2] was “ascr#3”.

In the case of CC1OC(O[C@H](C)CCCCCCCC(=O)O)C(O)CC1O (stereo partly drawn) [ascr#16], the “Dispersal” value [3] is reported as “ascr#16*”, the “Repel Females/Herm.” value [3] is reported as “ascr#16*” and the “act … in Meloidogyne species” value [3] is reported as “dispersants and repellants”.

With CC1OC(O[C@H](C)CCCCCCCCCC(=O)O)C(O)CC1O (stereo partly drawn) [ascr#20] the “Dispersal” value [3] was “ascr#20*”, the “Repel Females/Herm.” value [3] was “ascr#20*” and the “act … in Meloidogyne species” value [3] was “dispersants and repellants”.

For CC1O[C@@H](OCCCCCCCCC(=O)O)C(O)C[C@H]1O (stereo partly drawn) [oscr#10, 9-(3′R,5′R-Dihydroxy-6′S-methyl-(2H)-tetrahydropyran-2′-yloxy)nonanoic acid], the “Repel Males” value [6] was “oscr#10”.

With C[C@@H]1O[C@@H](OCCCCC(=O)O)[C@H](O)C[C@H]1O [oscr#9, 5-(3′R,5′R-Dihydroxy-6′S-methyl-(2H)-tetrahydropyran-2′-yloxy)pentanoic acid] the “Attract Males” value [6] was “oscr#9”.

In the case of CC1OC(O[C@H](C)CCCCCCCCC(=O)O)C(O)CC1O (stereo partly drawn) [ascr#18], the “Dispersal” value [7] is reported as “ascr#18*”, the “Repel Females/Herm.” value [7] is reported as “ascr#18*” and the “act as dispersants and repellants in Heterorhabditis” value [7] is reported as “dispersants and repellants”. For the same compound, the “Dispersal” value [3] was “ascr#18*”, the “Repel Females/Herm.” value [3] was “ascr#18*” and the “act … in Meloidogyne species” value [3] was “dispersants and repellants”.

For CC(=O)CC[C@@H](C)O[C@@H]1O[C@@H](C)[C@H](O)C[C@H]1O[C@@H]1O[C@H](CO)[C@@H](O)[C@H](O)[C@H]1O [ascr#4], the “Promote Dauer Formation” value [2] was “ascr#4”.

In the case of C[C@H](CCCC/C=C/C(=O)O)O[C@@H]1O[C@@H](C)[C@H](OC(=O)c2ccc(O)cc2)C[C@H]1O [hbas#3, (8R)-(3′R-Hydroxy-5′R-(4-hydroxybenzoyloxy)-6′S-methyl-(2H)-tetrahydropyran-2′-yloxy)non-(2E)-enoic acid], the “concentration at which C. elegans is strongly attracted (as low as)” value [12] is reported as no more than 10 femtomolar, the “attraction of wild-type (N2) hermaphrodites” value ([1]; dose dependent manner) is reported as “attracted” and the “Attract Females/Herm.” value [2] is reported as “([very”. For the same compound, the “Attract Males” value [2] was “([strong])”.
